Results published in publication PMC11574108, “4-Furanylvinylquinoline derivative as a new scaffold for the design of oxidative stress initiator and glucose transporter inhibitor drugs” (Scientific Reports, 2024).

What was measured:
[1] = tested on: AsPC-1 spheroids; assay: 3D spheroid cell viability assay; type: cell-based; conditions: Homo sapiens, ASPC1; 3D spheroids, CellTiter-Glo 3D, 72-h treatment; read-out: IC50 AsPC-1 (3D model)
Method: (§1) The HCT 116 cell lines, AsPC-1, PANC-1 (5,000), and U-251 cells (8,000) in 100 µL of medium were seeded in 96-well ULA Corning spheroid microplates (Sigma-Aldrich) and incubated for 72 h at 37 °C to form spheroids. The medium from each well was then gently removed and freshly prepared solutions of 13 were added. The treated spheroids were incubated for the next 72-h. Afterward, cell viability assays were performed using CellTiter-Glo 3D Reagent (Promega) according to the manufacturer’s protocol. Briefly, CellTiter-Glo 3D Reagent was added in equal volume to the medium in each well. The plate was vigorously mixed for 5 min and then incubated for 25 min at room temperature. The luminescence was measured using a multiplate reader (Synergy 4, BioTek). The experiment for each sample was performed at least three times. The results from the assay are presented as IC50 values, which were calculated using GraphPad Prism v.8.0 (USA).
(§2) To confirm the cytotoxicity ranking, the viability of the cells was also estimated on a 3D spheroid model, which better represented a solid tumour. […] The cell lines that represented pancreatic cancer were less responsive to derivative 13, which was similar to the 2D model. […] However, the activity of derivative 13 was confirmed on the 3D model that reflected a real tumour, which is undoubtedly a positive result and a reason for further, more in-depth studies to clarify the mechanism of action of the 4-furanylvinylquinoline derivative 13.

[2] = tested on: HCT 116 p53-/- spheroids; assay: 3D spheroid cell viability assay; type: cell-based; conditions: Homo sapiens, HCT-116, 72 h, 3D spheroids, CellTiter-Glo 3D, 72-h treatment; read-out: IC50 HCT 116 p53-/- (3D model)
Method: as §1, §2

[3] = tested on: PANC-1 spheroids; assay: 3D spheroid cell viability assay; type: cell-based; conditions: Homo sapiens, 3D spheroids, CellTiter-Glo 3D, 72-h treatment, read-out: IC50 PANC-1 (3D model)
Method: as §1, §2

[4] = tested on: U-251 spheroids; assay: 3D spheroid cell viability assay; type: cell-based; conditions: Homo sapiens, 3D spheroids, CellTiter-Glo 3D, 72-h treatment, read-out: IC50 U-251 (3D model)
Method: as §1, §2

[5] = tested on: HO-1; assay: Western blot, HO-1 protein level; type: cell-based, human; conditions: 24 h
Method: The cells (500,000) were seeded in 35 mm Petri dishes (Nunc) and incubated in a solution of the tested compound (0.5 µM and 1 µM) for 24 h and 48 h. The cells were then dissociated using trypsin, collected in Eppendorf tubes, and centrifuged at 2,000 rpm. Next, cell pellets were resuspended in complete RIPA buffer containing a Halt Protease Inhibitor Cocktail and Halt Phosphatase Inhibitor Cocktail along with 0.5 M EDTA (all reagents from Thermo Fisher Scientific) and lysed on ice for 20 min. Afterward, the lysates were sonicated and centrifuged at 10,000 rpm for 10 min at 4 °C. The obtained supernatants were collected for further analysis. The protein concentration was determined using a Micro BCA™ Protein Assay Kit (Thermo Fisher Scientific) according to the manufacturer’s procedure. Equal amounts of proteins (16 µg) were electrophoresed on SDS-Page gels and transferred onto nitrocellulose membranes. Novex Sharp Pre-Stained Protein Standard (Thermo Fisher Scientific) was used as a colored molecular weight marker. The membranes were blocked in 5% non-fat milk prepared in TPBS (PBS supplemented by 0.1% Tween-20) for 1 h. After blocking, the membranes were cut, and then incubated with specific primary monoclonal antibodies (all purchased from Cell Signaling) overnight at 4 °C. The antibodies for the target proteins (CDK1 Mouse mAb #9116, p53 Mouse mAb #2524, FAS Mouse mAb #8023, GLUT-1 Rabbit mAb #12939, HO-1 Rabbit mAb #5853, p21^Waf1/Cip1 Rabbit mAb #2947, PARP #9542) were diluted 1:1000, while the antibodies for the reference proteins (GAPDH Rabbit mAb #2118, β-actin Mouse mAb #3700, and vinculin Rabbit mAb #13901) were diluted 1:2000. The following day, the membranes were washed in TPBS and incubated with horseradish peroxidase (HRP)-conjugated secondary antibodies (Anti-rabbit IgG, HRP-linked Antibody #7074 or Anti-mouse IgG, HRP-linked Antibody #7076) for 1 h at room temperature. The membranes were then washed in TPBS and incubated with a SuperSignal™ West Pico Chemiluminescent Substrate (Thermo Fisher Scientific). […]

## O=[N+]([O-])c1ccc(/C=C/c2ccnc3ccccc23)o1 [Compound 13]
[1]
  IC50: 4.18 ± 1 µM
[2]
  IC50: ~1 µM
[3]
  IC50: 2.16 ± 0.37 µM
[4]
  IC50: 0.34 ± 0.07 µM
[5]; HCT 116 p53+/+, 1 µM
  HO-1 protein level vs control: more than twelve-fold
[5]; HCT 116 p53-/-, 1 µM
  HO-1 protein level vs control: six-fold
[5]; U-251, 1 µM
  HO-1 protein level vs control: four-fold
